Source: ChEMBL document CHEMBL1201862, “PubChem BioAssay data set” (2004)
Calls of active or inactive are those of the source.

Tests used:
[1] = reduction of Shn3 3'UTR-driven luciferase in osteoblasts – cell-based, Clone20 osteoblasts, firefly luciferase, cherry-picked, dose response (AID 624132); assay type: functional;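 further: firefly luciferase luminescence from reporter carrying the Shn3 3'UTR in osteoblasts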
[2] = non-specific 3'UTR reporter inhibition in Clone20-Shn3RL – cell-based, Renilla luciferase, cherry-picked, counter-screen for Shn3 inhibitor project, dose response (AID 624133); assay type: functional
[3] = loss of viability in HepG2 cells – cell-based, CellTiter-Glo, cherry-picked, cytotoxicity control for Shn3 inhibitor project, dose response (AID 624134); assay type: functional
[4] = biological target: T1, Short transient receptor potential channel 4 (Mus musculus, UniProt Q9QUQ5); assay: block of DAMGO-driven TRPC4 calcium entry – cell-based, HEK293 TRPC4/mu-opioid, Fluo-4 calcium, dose response (AID 434942); assay type: functional;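 further: potency of inhibitors blocking the TRPC4 calcium response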
T1 sequence (Q9QUQ5 whole entry): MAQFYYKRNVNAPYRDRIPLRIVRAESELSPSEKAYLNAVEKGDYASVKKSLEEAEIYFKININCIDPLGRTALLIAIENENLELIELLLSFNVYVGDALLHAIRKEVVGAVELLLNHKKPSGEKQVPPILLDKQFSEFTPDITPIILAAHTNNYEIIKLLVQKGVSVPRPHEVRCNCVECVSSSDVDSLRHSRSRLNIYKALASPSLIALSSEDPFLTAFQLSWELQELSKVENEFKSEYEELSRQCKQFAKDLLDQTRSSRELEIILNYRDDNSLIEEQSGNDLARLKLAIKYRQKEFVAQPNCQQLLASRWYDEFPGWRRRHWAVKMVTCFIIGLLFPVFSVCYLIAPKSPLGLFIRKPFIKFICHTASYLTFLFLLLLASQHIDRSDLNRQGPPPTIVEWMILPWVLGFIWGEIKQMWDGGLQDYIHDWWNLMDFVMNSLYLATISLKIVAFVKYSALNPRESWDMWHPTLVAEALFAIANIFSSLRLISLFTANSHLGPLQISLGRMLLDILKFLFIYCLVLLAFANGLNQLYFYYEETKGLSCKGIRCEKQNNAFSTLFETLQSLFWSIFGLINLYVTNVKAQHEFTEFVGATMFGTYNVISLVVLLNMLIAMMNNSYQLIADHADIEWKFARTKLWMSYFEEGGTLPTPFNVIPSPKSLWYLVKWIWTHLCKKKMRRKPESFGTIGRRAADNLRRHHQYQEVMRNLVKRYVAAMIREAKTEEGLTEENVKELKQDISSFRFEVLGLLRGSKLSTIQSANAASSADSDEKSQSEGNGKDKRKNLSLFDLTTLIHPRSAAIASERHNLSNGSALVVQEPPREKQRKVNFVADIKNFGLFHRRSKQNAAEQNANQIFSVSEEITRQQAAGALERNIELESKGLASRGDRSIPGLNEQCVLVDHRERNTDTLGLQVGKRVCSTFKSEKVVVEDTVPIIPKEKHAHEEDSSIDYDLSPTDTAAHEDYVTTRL

[5] = THP-1 cell cytotoxicity, dose response, cytotoxicity control for non-replicating M. tuberculosis project (AID 489025); assay type: functional
HEK293 = assay: EBV LMP1 TES2 canonical NF-kB signalling blockers – cell-based, HEK293, luciferase, cherry-pick, dose response (AID 588343); assay type: functional; details: Homo sapiens
Cytochrome P450 1A2 = biological target: T2, Cytochrome P450 1A2 (Homo sapiens, UniProt P05177);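 further: PubChem cytochrome P450 panel assay, CYP1A2 panel member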
T2 sequence (P05177 whole entry): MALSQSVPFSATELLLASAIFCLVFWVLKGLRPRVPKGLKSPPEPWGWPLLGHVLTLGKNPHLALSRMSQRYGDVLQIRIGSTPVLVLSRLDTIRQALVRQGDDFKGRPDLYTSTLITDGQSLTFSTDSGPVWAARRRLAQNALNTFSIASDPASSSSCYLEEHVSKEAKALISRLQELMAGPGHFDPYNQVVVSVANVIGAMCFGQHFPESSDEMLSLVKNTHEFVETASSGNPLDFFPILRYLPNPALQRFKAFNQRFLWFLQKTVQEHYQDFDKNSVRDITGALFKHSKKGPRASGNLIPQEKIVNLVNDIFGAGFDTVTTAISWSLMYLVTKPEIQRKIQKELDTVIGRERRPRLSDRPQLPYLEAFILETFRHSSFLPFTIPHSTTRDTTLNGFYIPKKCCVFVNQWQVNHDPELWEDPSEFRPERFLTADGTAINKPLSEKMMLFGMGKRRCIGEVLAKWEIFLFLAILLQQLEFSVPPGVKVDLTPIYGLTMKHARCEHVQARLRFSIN

Cytochrome P450 2C9 = Cytochrome P450 2C9 (Homo sapiens, UniProt P11712)
[6] = biological target: T3, RNA-binding protein pos-1 (Caenorhabditis elegans, UniProt G5EF15); assay: disruptors of C. elegans POS-1 RNA interaction – biochemical, fluorescence polarization, dose response (AID 1964);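 further: purified POS-1 fused to maltose binding protein made in E. coli; potency of compounds blocking POS-1 binding to fluorescent RNA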
T3 sequence (G5EF15 whole entry): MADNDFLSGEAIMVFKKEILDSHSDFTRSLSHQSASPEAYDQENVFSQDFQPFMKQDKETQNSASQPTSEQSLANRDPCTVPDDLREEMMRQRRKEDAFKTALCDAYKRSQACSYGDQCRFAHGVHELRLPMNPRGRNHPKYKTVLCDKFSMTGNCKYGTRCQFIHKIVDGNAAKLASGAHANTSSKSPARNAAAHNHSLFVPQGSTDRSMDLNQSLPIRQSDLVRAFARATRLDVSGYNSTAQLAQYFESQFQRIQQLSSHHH

[7] = biological target: T4, Zinc finger protein mex-5 (Caenorhabditis elegans, UniProt Q9XUB2); assay: potency of MEX-5 RNA-binding blockers – biochemical, C. elegans, fluorescence polarization, dose response (AID 1960)
T4 sequence (Q9XUB2 whole entry): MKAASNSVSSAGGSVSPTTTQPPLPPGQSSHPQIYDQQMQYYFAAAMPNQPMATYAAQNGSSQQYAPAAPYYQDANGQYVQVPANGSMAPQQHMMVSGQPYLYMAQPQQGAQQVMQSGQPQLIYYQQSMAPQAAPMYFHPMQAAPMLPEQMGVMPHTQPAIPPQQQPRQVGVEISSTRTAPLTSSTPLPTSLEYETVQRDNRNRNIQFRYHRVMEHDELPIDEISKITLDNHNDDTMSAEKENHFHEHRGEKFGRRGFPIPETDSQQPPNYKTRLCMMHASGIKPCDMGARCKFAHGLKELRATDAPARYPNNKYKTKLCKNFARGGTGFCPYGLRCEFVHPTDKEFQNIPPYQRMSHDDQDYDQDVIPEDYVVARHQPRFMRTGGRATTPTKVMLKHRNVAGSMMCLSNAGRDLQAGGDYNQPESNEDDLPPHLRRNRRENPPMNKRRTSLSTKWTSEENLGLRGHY

Genome polyprotein = Genome polyprotein (dengue virus type 2, UniProt P29990); assay: flavivirus cap methylation enzyme inhibition – biochemical, confirmation dose response, primary screen (AID 588689); assay type: functional
[8] = blockers of HIV-1 envelope-mediated cell-cell fusion – cherry-pick, dose response (AID 652057); assay type: functional, cell-based
[9] = HIV-1 AD8 envelope cell-cell fusion blockers – cherry-pick, dose response (AID 652062); assay type: functional, cell-based;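 further: luciferase signal from cell-cell fusion driven by HIV-1 clade B AD8 Env; potency is for inhibitors of fusion seen as a drop in luminescence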
Streptokinase A = biological target: T5, Streptokinase A (Streptococcus pyogenes serotype M1, UniProt P10520); assay: viability-normalized secreted streptokinase activity reduction – plasminogen activation absorbance, OD405, dose response (AID 1914); assay type: functional, Streptococcus pyogenes M1 GAS;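 further: secreted streptokinase activity via plasminogen activation per viability signal from cell pellet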
T5 sequence (P10520 whole entry): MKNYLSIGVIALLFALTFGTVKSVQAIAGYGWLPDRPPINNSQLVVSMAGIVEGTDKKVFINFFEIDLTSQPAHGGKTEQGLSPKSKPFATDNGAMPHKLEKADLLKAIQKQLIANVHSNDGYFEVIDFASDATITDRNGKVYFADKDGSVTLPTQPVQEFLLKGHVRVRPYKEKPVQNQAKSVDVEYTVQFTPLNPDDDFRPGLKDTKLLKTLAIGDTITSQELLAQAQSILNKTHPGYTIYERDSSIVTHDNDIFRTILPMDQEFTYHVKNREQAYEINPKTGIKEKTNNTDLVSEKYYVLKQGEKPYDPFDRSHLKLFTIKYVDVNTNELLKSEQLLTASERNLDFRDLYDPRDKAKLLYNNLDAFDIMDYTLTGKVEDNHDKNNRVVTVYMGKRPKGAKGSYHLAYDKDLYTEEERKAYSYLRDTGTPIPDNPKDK

Streptococcus = assay: GAS UMAA2166 growth inhibition – luminescence, BacTiterGlo, counter-screen for streptokinase expression inhibitor project, dose response (AID 1915); assay type: functional, organism-based;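 further: potency for reduction of bacterial viability or growth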
[10] = test system: Streptococcus sp. 'group A'; assay: Streptococcus pyogenes SK(-)GAS viability under kanamycin – luminescence, BacTiterGlo, confirmation, counter-screen for streptokinase expression inhibitor project, dose response (AID 1900); assay type: functional, organism-based

Sequence of Cytochrome P450 2C9 (P11712 whole entry, the tested form may be a part): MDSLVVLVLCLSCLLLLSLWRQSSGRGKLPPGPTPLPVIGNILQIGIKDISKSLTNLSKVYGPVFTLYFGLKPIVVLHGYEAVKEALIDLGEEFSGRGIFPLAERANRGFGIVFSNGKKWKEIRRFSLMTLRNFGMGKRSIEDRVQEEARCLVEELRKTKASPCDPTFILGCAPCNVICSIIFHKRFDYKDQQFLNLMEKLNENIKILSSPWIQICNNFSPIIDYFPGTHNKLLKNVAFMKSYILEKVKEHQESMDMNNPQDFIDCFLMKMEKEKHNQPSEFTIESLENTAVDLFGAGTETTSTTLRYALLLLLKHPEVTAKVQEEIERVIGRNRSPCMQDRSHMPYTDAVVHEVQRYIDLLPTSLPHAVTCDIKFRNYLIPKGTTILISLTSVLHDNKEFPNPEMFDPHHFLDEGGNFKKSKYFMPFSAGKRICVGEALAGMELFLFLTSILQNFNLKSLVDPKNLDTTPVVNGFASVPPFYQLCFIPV
Sequence of Genome polyprotein (P29990 2492-3391 limits assumed): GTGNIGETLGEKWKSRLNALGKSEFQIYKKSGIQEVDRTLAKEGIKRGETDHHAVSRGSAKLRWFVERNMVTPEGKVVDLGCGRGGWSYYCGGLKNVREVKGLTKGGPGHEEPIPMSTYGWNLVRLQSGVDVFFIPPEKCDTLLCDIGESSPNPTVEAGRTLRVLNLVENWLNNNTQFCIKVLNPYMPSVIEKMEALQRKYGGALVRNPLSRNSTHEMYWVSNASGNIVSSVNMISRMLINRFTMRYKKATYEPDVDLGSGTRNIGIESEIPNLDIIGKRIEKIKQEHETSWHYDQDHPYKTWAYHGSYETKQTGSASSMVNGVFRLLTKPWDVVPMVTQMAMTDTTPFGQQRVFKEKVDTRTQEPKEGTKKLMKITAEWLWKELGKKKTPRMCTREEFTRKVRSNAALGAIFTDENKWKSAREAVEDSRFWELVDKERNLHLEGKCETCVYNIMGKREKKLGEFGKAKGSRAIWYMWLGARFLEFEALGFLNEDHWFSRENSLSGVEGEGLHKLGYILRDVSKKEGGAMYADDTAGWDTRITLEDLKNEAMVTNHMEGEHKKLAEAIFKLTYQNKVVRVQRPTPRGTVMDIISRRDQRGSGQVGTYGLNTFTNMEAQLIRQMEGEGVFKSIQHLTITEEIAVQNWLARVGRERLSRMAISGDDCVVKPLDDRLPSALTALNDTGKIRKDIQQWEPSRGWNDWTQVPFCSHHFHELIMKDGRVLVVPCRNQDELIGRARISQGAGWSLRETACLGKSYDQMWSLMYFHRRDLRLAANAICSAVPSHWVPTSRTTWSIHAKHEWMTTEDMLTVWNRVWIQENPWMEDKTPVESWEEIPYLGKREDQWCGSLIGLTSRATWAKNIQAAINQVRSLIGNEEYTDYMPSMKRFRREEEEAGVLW

CC(=O)Nc1cccc(NC(=O)CSc2ncc(-c3ccc(Cl)cc3)n2Cc2ccco2)c1
AC50 [1]: 4.95 µM (active)
AC50 [2]: 10.7 µM (active)
AC50 [3]: 60.2 µM (active)

Cc1cccn2cc(-c3c[nH]c4ccccc34)nc12
EC50 [4]: 5.96 µM (active)

Cc1ccc(CNC(C)c2ccccc2)cc1 (stereo unspecified)
EC50 [4]: 6.68 µM (active)

Cc1nc(Cl)nc(N(C)c2ccccc2)c1[N+](=O)[O-]
EC50 [4]: 13.3 µM (active)
CC50 [5]: 22.9 µM (active)

O=C(NCc1cccc(Cl)c1)c1cc(COc2ccc3ncccc3c2)on1
AC50 [1]: 3.05 µM (active)
AC50 [2]: 14.8 µM (active)
AC50 [3]: 38.7 µM (active)

Cc1c(NC(=O)c2cc(-c3cccs3)nc3ccccc23)c(=O)n(-c2ccccc2)n1C
AC50 (HEK293): > 350 µM (inactive)

COC(=O)CN(c1ccccn1)S(=O)(=O)c1ccccc1
AC50 (Cytochrome P450 1A2): 25.1 µM (inconclusive)
AC50 (Cytochrome P450 2C9): inconclusive

O=C(O)c1cccc(-n2cccc2C=C2C(=O)c3ccccc3C2=O)c1
EC50 [6]: 37 µM (active)
EC50 [7]: 48.5 µM (active)

Cc1cccc2nc(CSc3ccc(Cl)cc3)cn12
EC50 [4]: 4.22 µM (active)

COc1cccc(/C=C2/C(=O)NN(c3ccc(C)c(C)c3)C2=O)c1
IC50 (Genome polyprotein): > 100 µM (active)

Cc1cc2ncn(S(=O)(=O)N3CCCCC3)c2cc1C
AC50 [8]: 5.54 µM (active)
AC50 [9]: 60.6 µM (active)

N=c1c(S(=O)(=O)c2ccccc2)cc2c(=O)n3ccccc3nc2n1Cc1cccnc1
EC50 [6]: 68.1 µM (inconclusive)
EC50 [7]: 6.91 µM (inconclusive)

Brc1cc2c(cc1C1Nc3ccccc3C3C=CCC31)OCO2 (stereo unspecified)
EC50 (Streptokinase A): 2.55 µM (active)
EC50 (Streptococcus): 25.4 µM (active)
EC50 [6]: > 300 µM (not active)
EC50 [10]: 7.1 µM (active)
EC50 [7]: > 300 µM (not active)
